Experimental data published in patent US20260265408A1, “GD2-SPECIFIC CHIMERIC ANTIGEN RECEPTOR EFFECTOR CELLS FOR USE IN THE TREATMENT OF SOLID TUMORS, POSSIBLY IN COMBINATION WITH ENHANCER OF ZESTE HOMOLOG 2 (EZH2) INHIBITORS” (priority 2023, published 2026).

Test system: CAR.GD2 T-cells
Test: In vivo activation of iC9 suicide gene by AP1903 in PDX-MB mouse model
Set-up: species or system NSG mice
Experimental: The in vivo activity of AP1903 on apoptosis induction of CAR. GD2 T-cells was assessed in in vivo PDX-MB mouse model. Briefly, 2×10^5 Med-411FH mCherry/Luciferase were orthotopic infused in 5-week-old female NSG mice. After tumor engraftment, confirmed by bioluminescence monitoring, mice received an intravenous injection (i.v.) of 10×10^6 of NT T or genetically modified CAR.GD2 T cells. Ten days later, when the presence of circulating T cells was confirmed by flow cytometric analysis, mice were randomly divided in four groups and treated or not treated by intraperitoneal (i.p.) infusion with AP1903 (100 mg/mouse) on day +11, day +12 and day +13 (NT-T no AP1903, NT-T AP1903+ or CAR. GD2-T no AP1903, CAR.GD2-T AP1903+). The residual of effector cells was evaluated 24 hours after the last AP1903 treatment by flow cytometric analysis in the peripheral blood or histologic and IHC analysis in brain/tumor tissue. Animals were sacrificed and brains were fixed in 4% formaldehyde in 0.1 mol/L phosphate buffer (pH 7.2) and paraffin embedded. AP1903 (cat. No. 6130, Biotechne-TOCRIS).
The histopathologic analysis was performed as previously reported^74. Briefly, after Haematoxylin/Eosin staining for IHC analysis, the sections were cut to 2.5 μm thick, dewaxed, and rehydrated. Epitope retrieval was performed by boiling the slides with EDTA (pH 9). Endogenous peroxidase was blocked with 3% hydrogen peroxide for 10 minutes followed by another blocking step in 5% serum albumin (BSA) for 1-hour RT. The sections were then incubated with anti-CD3 antibody (1:100, DAKO) or anti-Ki67 (1:100, Abcam) at 4° C. overnight. Secondary biotinylated antibody (K8024, Dako, Carpinteria, USA) and the peroxidase DAB kit (Dako, Carpinteria, USA) were used to reveal the primary antibodies. Slides were then counterstained with hematoxylin, dehydrated with a series of alcohol solutions (70%-100%), followed by three changes of Diasolv and mounted with Diamount (Diapath). Analysis was performed using standard microscopy.

CC[C@H](C(=O)N1CCCC[C@H]1C(=O)O[C@H](CCc1ccc(OC)c(OC)c1)c1cccc(OCC(=O)NCCNC(=O)COc2cccc([C@@H](CCc3ccc(OC)c(OC)c3)OC(=O)[C@@H]3CCCCN3C(=O)[C@@H](CC)c3cc(OC)c(OC)c(OC)c3)c2)c1)c1cc(OC)c(OC)c(OC)c1 [AP1903]
circulating CAR.GD2-T cells (AP1903 i.p. 100 mg/mouse on three consecutive days, compared to untreated): significant reduction
tumor-infiltrating CD3+ cells (anti-hCD3 IHC on cerebella slides) (AP1903 i.p. on three consecutive days): eliminate tumor-infiltrating CD3+ cells
crossing of the BBB (systemic (i.p.) administration): cross the BBB
